# Experimental data taken from patent publication US7569550B2, “14 and 15 membered ring compounds” (Glaxo Group Limited, priority 2003, dated 2009).
# Structures can show the parent of a compound that is named as a salt.
# Assays:
# Experiment in all cases: MIC, standard broth dilution method in microtitre
# Type in all cases: cell-based
# [1] = tested on: erythromycin resistant strains of Streptococcus pneumoniae
# Description: (§1) Using a standard broth dilution method in microtitre, compounds were tested for antibacterial activity. The compounds in the above examples gave minimum inhibitory concentrations (MICs) less than 1 microgram per millilitre against erythromycin-sensitive and erythromycin-resistant strains of Streptococcus pneumoniae and Streptococcus pyogenes.
# [2] = tested on: erythromycin resistant strains of Streptococcus pyogenes
# Description: as §1
# E. faecalis ATCC 29212 = conditions: Enterococcus faecalis, ATCC29212
# Description: as §1
# (§2) In addition, the MIC (μg/ml) of test compounds against various organisms was determined including:
# (§3) S. aureus Smith ATCC 13709, S. pneumoniae SP030, S. pyogenes 3565, E. faecalis ATCC 29212, H. influenzae ATCC 49247, M. catarrhalis ATCC 23246.
# S. pyogenes 3565 = conditions: Streptococcus pyogenes
# Description: as §1, §2, §3
# S. pneumoniae SP030 = conditions: Streptococcus pneumoniae
# Description: as §1, §2, §3
# [3] = tested on: S. aureus Smith ATCC 13709; conditions: Staphylococcus aureus, ATCC13709
# Description: as §1, §2, §3
Compound,MIC [1] [µg/mL],MIC [2] [µg/mL],MIC (E. faecalis ATCC 29212) [µg/mL],MIC (S. pyogenes 3565) [µg/mL],MIC (S. pneumoniae SP030) [µg/mL],MIC [3] [µg/mL]
"CC[C@@H]1OC(=O)[C@H](C)[C@H](O[C@@H]2C[C@](C)(OC)[C@H](OCCCNCCNc3cc4c(=O)c(C(=O)O)cn(C5CC5)c4cc3Cl)[C@H](C)O2)[C@@H](C)[C@H](O[C@H]2O[C@@H](C)C[C@@H](N(C)C)[C@H]2O)[C@](C)(OC)C[C@H](C)C(=O)[C@H](C)[C@H]2OC(=O)O[C@@]12C [Example 10, 4″-O-{3-[2-(3-Carboxy-7-chloro-1-cyclopropyl-4-oxo-1,4-dihydro-quinolin-6-ylamino)ethylamino]-propyl}-6-O-methyl-erythromycin A 11,12-carbonate formate]",≤ 1,≤ 1,–,–,–,–
"CC[C@@H]1OC(=O)[C@H](C)[C@H](O[C@@H]2C[C@](C)(OC)[C@H](OCCCNCCNc3cc4c(cc3F)c(=O)c(C(=O)O)cn4C3CC3)[C@H](C)O2)[C@@H](C)[C@H](O[C@H]2O[C@@H](C)C[C@@H](N(C)C)[C@H]2O)[C@](C)(OC)C[C@H](C)C(=O)[C@H](C)[C@H]2OC(=O)O[C@@]12C [Example 11, 4″-O-{3-[2-(3-Carboxy-1-cyclopropyl-6-fluoro-4-oxo-1,4-dihydro-quinolin-7-ylamino)ethylamino]-propyl}-6-O-methyl-erythromycin A 11,12-carbonate formate]",≤ 1,≤ 1,–,–,–,–
"CC[C@H]1OC(=O)[C@H](C)[C@@H](O[C@H]2C[C@@](C)(OC)[C@@H](OCCCNCCOc3cc4c5c(c3)c(=O)c(C(=O)O)cn5CCC4)[C@H](C)O2)[C@H](C)[C@@H](O[C@@H]2O[C@H](C)CC(N(C)C)[C@H]2O)[C@](C)(OC)C[C@@H](C)C(=O)[C@@H](C)[C@H]2NC(=O)O[C@@]21C (stereo partly drawn) [Example 22, 4″-O-{3-[2-(2-Carboxy-1-oxo-6,7-dihydro-1H,5H-pyrido[3,2,1-ij]quinolin-9-yloxy)-ethylamino]-propyl}-6-O-methyl-11-desoxy-11-(R)-amino-erythromycin A 11,12-carbamate formate]",≤ 1,≤ 1,≤ 1,≤ 1,≤ 1,≤ 1
"CC[C@H]1OC(=O)[C@H](C)[C@@H](O[C@H]2C[C@@](C)(OC)[C@@H](OCCCNCCCc3cnc4c(c3)c(=O)c(C(=O)O)cn4CC)[C@H](C)O2)[C@H](C)[C@@H](O[C@@H]2O[C@H](C)C[C@H](N(C)C)[C@H]2O)[C@](C)(OC)C[C@@H](C)C(=O)[C@@H](C)[C@H]2NC(=O)O[C@@]21C [Example 24, 4″-O-{3-[3-(3-Carboxy-1-ethyl-4-oxo-1,4-dihydro-6-[1,8]naphthryidinyl)-propylamino]-propyl}-6-O-methyl-11-desoxy-11-(R)-amino-erythromycin A 11,12-carbamate formate]",≤ 1,≤ 1,–,–,–,–
"CC[C@H]1OC(=O)[C@H](C)[C@@H](O[C@H]2C[C@@](C)(OC)[C@@H](OCCCNCCCc3cc4c5c(c3)c(=O)c(C(=O)O)cn5CCC4)[C@H](C)O2)[C@H](C)[C@@H](O[C@@H]2O[C@H](C)C[C@H](N(C)C)[C@H]2O)[C@](C)(OC)C[C@@H](C)C(=O)[C@@H](C)[C@H]2NC(=O)O[C@@]21C [Example 25, 4″-O-{3-[3-(2-Carboxy-1-oxo-6,7-dihydro-1H,5H-pyrido[3,2,1-ij]quinolin-9-yl)-propylamino]-propyl}-6-O-methyl-11-desoxy-11-(R)-amino-erythromycin A 11,12-carbamate formate]",≤ 1,≤ 1,≤ 1,≤ 1,≤ 1,≤ 1
"CCc1cc(C(=O)O)c(=O)n2ccc(NCCNCCCO[C@H]3[C@H](C)O[C@@H](O[C@H]4[C@H](C)[C@@H](O[C@@H]5O[C@H](C)C[C@H](N(C)C)[C@H]5O)[C@](C)(OC)C[C@@H](C)C(=O)[C@@H](C)[C@H]5NC(=O)O[C@]5(C)[C@@H](CC)OC(=O)[C@@H]4C)C[C@@]3(C)OC)cc12 [Example 26, 4″-O-{3-[2-(3-Carboxy-1-ethyl-4-oxo-4-H-quinolizin-7-ylamino)-ethylamino]-propyl}-6-O-methyl-11-desoxy-11-(R)-amino-erythromycin A 11,12-carbamate formate]",≤ 1,≤ 1,–,–,–,–

# More lines, now with the values ahead:
MIC [1] [µg/mL],MIC [2] [µg/mL],MIC (E. faecalis ATCC 29212) [µg/mL],MIC (S. pyogenes 3565) [µg/mL],MIC (S. pneumoniae SP030) [µg/mL],MIC [3] [µg/mL],Compound
≤ 1,≤ 1,–,–,–,–,"CC[C@@H]1OC(=O)[C@H](C)[C@H](O[C@@H]2C[C@](C)(OC)[C@H](OCCCNCCOc3ccc4c(c3)c(=O)c(C(=O)O)cn4CC)[C@H](C)O2)[C@@H](C)[C@H](O[C@H]2O[C@@H](C)C[C@@H](N(C)C)[C@H]2O)[C@](C)(OC)C[C@H](C)C(=O)[C@H](C)[C@H]2OC(=O)O[C@@]12C [Example 3, 4″-O-{3-[2-(3-Carboxy-1-ethyl-4-oxo-1,4-dihydro-quinolin-6-yloxy)-ethylamino]-propyl}-6-O-methyl-erythromycin A 11,12-carbonate bis trifluoroacetate]"
–,–,≤ 1,≤ 1,≤ 1,≤ 1,"CC[C@@H]1OC(=O)[C@H](C)[C@H](O[C@@H]2C[C@](C)(OC)[C@H](OCCCNCCCc3ccc4c(c3)c(=O)c(C(=O)O)cn4CC)[C@H](C)O2)[C@@H](C)[C@H](O[C@H]2O[C@@H](C)C[C@@H](N(C)C)[C@H]2O)[C@](C)(OC)C[C@H](C)C(=O)[C@H](C)[C@H](O)[C@@]1(C)O [Example 5, 4″-O-{3-[3-(3-Carboxy-1-ethyl-4-oxo-1,4-dihydro-quinolin-6-yl)-propylamino]-propyl}-6-O-methyl-erythromycin A bisformate]"
≤ 1,≤ 1,≤ 1,≤ 1,≤ 1,≤ 1,"CC[C@@H]1OC(=O)[C@H](C)[C@H](O[C@@H]2C[C@](C)(OC)[C@H](OCCCNCCCc3ccc4c(c3)c(=O)c(C(=O)O)cn4CC)[C@H](C)O2)[C@@H](C)[C@H](O[C@H]2O[C@@H](C)C[C@@H](N(C)C)[C@H]2O)[C@](C)(OC)C[C@H](C)C(=O)[C@H](C)[C@H]2N(C)C(=O)O[C@@]12C [Example 7, 4″-O-{3-[2-(3-Carboxy-1-ethyl-4-oxo-1,4-dihydro-quinolin-6-yl)-propylamino]-propyl}-6-O-methyl-11-desoxy-11-(R)-methylamino-erythromycin A 11,12-carbamate formate]"
≤ 1,≤ 1,–,–,–,–,"CC[C@@H]1OC(=O)[C@H](C)[C@H](O[C@@H]2C[C@](C)(OC)[C@H](OCCCNCCCc3ccc4c(c3)c(=O)c(C(=O)O)cn4CC)[C@H](C)O2)[C@@H](C)[C@H](O[C@H]2O[C@@H](C)C[C@@H](N(C)C)[C@H]2O)[C@](C)(OC)C[C@H](C)C(=O)[C@H](C)[C@H]2OC(=O)O[C@@]12C [Example 9, 4″-O-{3-[3-(3-Carboxy-1-ethyl-4-oxo-1,4-dihydro-quinolin-6-yl)propylamino]-propyl}-6-O-methyl-erythromycin A 11,12-carbonate formate]"
≤ 1,≤ 1,–,–,–,–,"CC[C@@H]1OC(=O)[C@H](C)[C@H](O[C@@H]2C[C@](C)(OC)[C@H](OCCCNCCNc3nc4c(cc3F)c(=O)c(C(=O)O)cn4CC)[C@H](C)O2)[C@@H](C)[C@H](O[C@H]2O[C@@H](C)C[C@@H](N(C)C)[C@H]2O)[C@](C)(OC)C[C@H](C)C(=O)[C@H](C)[C@H]2OC(=O)O[C@@]12C [Example 12, 4″-O-{3-[2-(3-Carboxy-1-ethyl-6-fluoro-4-oxo-1,4-dihydro-[1,8]naphthyridin-7-ylamino)ethylamino]-propyl}-6-O-methyl-erythromycin A 11,12-carbonate formate]"
